Consider 1 compound from US12616698B2, “Methods for reducing liver fat and for treating fatty liver disorders” (Corcept Therapeutics Incorporated, priority 2021, dated 2026).

For one assay, the system named is C57BL/6J male mice. Kind of assay: AMLN diet NASH mouse model, drug provided in the AMLN diet. In kind it is in vivo. Particulars: 60 mg/kg miricorilant in AMLN diet, 8 weeks; for Liver weight at termination of the study: vs diet-alone control (FIG. 8A). On the procedure: Two studies were conducted in C57BL/6J male mice (n=12 per group) maintained on a diet high in fat (40%), cholesterol (2%) and fructose (20%; referred to as the AMLN diet: see, e.g., Tolbol et al., World Journal of Gastroenterology, 24(2):179-194 (2018)) for 42 weeks before dosing with miricorilant was initiated. In the first study, all animals ate the AMLN diet, and received either placebo, 30 mg/kg miricorilant, or 60 mg/kg mifepristone once per day orally. […] All animals received the AMLN diet for 42 weeks prior to receiving their first dose of study drug or placebo. 4 weeks prior to receiving that first dose, a liver biopsy and histological examination of biopsy tissue was performed for each animal; 3 weeks prior to receiving that first dose, animals were randomized into three groups: control, miricorilant, or mifepristone. Only mice with fibrosis stage >=1 and steatosis score >=2 were allowed in the study and the groups were stratified according to liver col1a1 so that each study group had similar overall distributions of liver col1a1 among the mice. All animals continued on the study diet for the 3 weeks following randomization, at which time study drug or placebo administration began. All animals received their assigned drugs for 8 weeks (the 8 week in vivo study period). At 56 days (week 8) after initiation of drug administration, plasma ALT, AST, triglycerides, total cholesterol, and miricorilant levels were measured, and animals were sacrificed, liver necropsies were performed, liver histological ((NAFLD Activity Score, Fibrosis Stage, steatosis (scored using hematoxylin and eosin staining (HE)), col1a (scored using immunohistochemistry (IHC)) and Galectin-3 (IHC)) and liver biochemical measurements (including liver triglycerides and total cholesterol) were made, and liver and plasma samples were obtained for genetic ((e.g., RNA sequencing) and other analyses.
Thus, in these studies, the mice were subjected to a liver biopsy approximately 4 weeks before initiation of dosing with miricorilant and only mice with confirmed fibrosis (fibrosis stage ≥1) and steatosis (score ≥2) were entered into the study. At the end of the dosing period, blood samples were collected for determination of plasma ALT, AST, triglycerides, total cholesterol, and miricorilant. Liver samples were collected for analysis of triglycerides, total cholesterol, hydroxyproline, and histopathology. Body weight and food consumption were monitored throughout the study.
Type I collagen IHC staining Type I collagen (Southern Biotech, Cat. 1310-01) IHC were performed using standard procedures. Briefly, after antigen retrieval and blocking of endogenous peroxidase activity, slides were incubated with primary antibody. The primary antibody was detected using a polymeric HRP-linker antibody conjugate. Next, the primary antibody was visualized with DAB as chromogen. Finally, sections were counterstained in hematoxylin and cover-slipped.
Liver Galectin-3 content Galectin-3 (Biolegend, Cat. #125402) IHC was performed using standard procedures. Briefly, after antigen retrieval and blocking of endogenous peroxidase activity, slides were incubated with primary antibody. The primary antibody was detected using a linker secondary antibody followed by amplification using a polymeric HRP-linker antibody conjugate. Next, the primary antibody was visualized with DAB as chromogen. Finally, sections were counterstained in hematoxylin and cover-slipped.
Total liver col1a1 was evaluated from liver samples stained with anti-type I collagen (col1a1) (Southern Biotech, cat. 1310-01) at the end of the treatment period (typically using low power (20×) magnification). Galectin-3 content was evaluated from images of liver samples stained with anti-Galectin-3 (BioLegend, Cat. 125402) at the end of the treatment period (typically using low power (20×) magnification). Terminal relative (left) and total (right) liver type I Collagen (Col1a1) quantification was determined by morphometry. […]

In assay [1] the test system is patients with presumed NASH. Kind of assay: Example 6 study, dosing-regimen cohorts: liver fat content (MRI-PDFF) and markers. It counts as in vivo, human. The following applies: for Mean reduction in LFC: Week 6 (FIG. 10). The procedure: This study was a double-blind, multi-center, placebo-controlled, randomized 3-arm phase 2a study (NCT03823703) conducted to assess the safety and efficacy of miricorilant in reducing liver fat content (LFC) in patients with presumed NASH. Adult patients (18-75 years) with presumed NASH were randomized 1:1:1 to miricorilant 600 mg daily, miricorilant 900 mg daily, or placebo for 12 weeks. […] Abbreviations used in this Example and in the Figures include: ALP, alkaline phosphatase; ALT, alanine aminotransferase; AST, aspartate aminotransferase; ELF, enhanced liver fibrosis; LFC, liver fat content; NASH, non-alcoholic steatohepatitis; ULN, upper limit of normal; AUC, area under the concentration-time curve; Cmax, maximum concentration; EOT, end of treatment; GGT, gamma-glutamyltransferase; INR, international normalized ratio; MRI-PDFF, magnetic resonance imaging-proton density fat fraction; pt, patient; SD, standard deviation; ULN, upper limit of normal; Wk, week.
Key inclusion criteria included that the patients be adults between 18-75 years old; be presumed to suffer from NASH with fibrosis; have LFC as measured by MRI-PDFF≥8%; have levels of AST<5×ULN and ALT<5×ULN; and have eGFR>60 mL/min/1.73 m^2. Primary endpoints included relative change in LFC from baseline by MRI-PDFF. Secondary endpoints included change from baseline in AST, ALT, GGT, and change from baseline in ELF score.
Patients were divided into different cohorts and received different regimens of miricorilant. The cohorts included patients receiving 30 mg mircorilant once per day; patients receiving 50 mg mircorilant once per day; patients receiving 100 mg mircorilant once per day; patients receiving 150 mg mircorilant once per day; patients receiving 100 mg mircorilant on Mondays, Wednesdays, and Fridays; patients receiving 100 mg mircorilant on Mondays and Fridays; and patients receiving 200 mg mircorilant once per week. Patients receiving 100 mg mircorilant on Mondays and Fridays were termed “Cohort 6”.

Each structure is given as a SMILES string. Entries after “also recorded” stand apart in the source; their conditions may differ.

Take `O=c1[nH]c(=O)c(Cc2cccc(C(F)(F)F)c2)c([C@H]2CC[C@H](c3ccccc3)CC2)[nH]1` [miricorilant, (E)-6-(4-Phenylcyclohexyl)-5-(3-trifluoromethylbenzyl)-1H-pyrimidine-2,4-dione]: the “Relative and total liver Galectin-3 content” value in the assay with C57BL/6J male mice (IHC morphometry, vs vehicle (FIG. 8C)) is recorded as “reduced”. Moreover, the “Total liver type I collagen (col1a1) content” value in the assay with C57BL/6J male mice (IHC morphometry, vs vehicle, significant as total weight (FIG. 8B)) is recorded as “reduced”. Besides, the Body weight entry in the assay on C57BL/6J male mice (vs diet-alone control) is “significantly reduced”. Moreover, the “Liver weight at termination of the study” value in the assay with C57BL/6J male mice is recorded as “reduced”; in the assay on C57BL/6J male mice (listed as Miricorilant), “significantly reduced”. Further, in assay [1] (100 mg twice per week, Mondays and Fridays (FIG. 16)), the “Lipid levels (LDL and VLDL)” value was “reductions”. The Glycemic markers entry in assay [1] (100 mg twice per week, Mondays and Fridays (FIG. 17)) is on record as “reductions”. The Fibrosis markers entry in assay [1] (100 mg twice per week, Mondays and Fridays (FIG. 18)) is recorded as “reductions”. For the same compound, the “LFC (MRI-PDFF) and liver enzyme levels (ALT and AST)” value in assay [1] (100 mg twice per week, Mondays and Fridays, twelve weeks (FIG. 15)) is reported as “reductions”. Further, the “Reduction in liver fat” value in assay [1] (100 mg twice weekly, over 12 weeks) is given as −30%. Also, the “LFC mean % change from baseline” value in assay [1] (Cohort 6, miricorilant 100 mg twice weekly, week 12) is reported as −28.2%; in assay [1] (daily doses of miricorilant 50-150 mg, week 6), −22.3%. In assay [1] (miricorilant treatment, including 100 mg twice weekly), the “Hepatic, lipid, and glycemic markers” value is listed as “improvements; also recorded: improved”. Moreover, the Weight loss result in assay [1] (patients whose ALT and/or AST levels remain below 3 times normal) is “significant”; in assay [1] (patients whose ALT and/or AST levels rise above 3 times normal) it was “even greater than for the other group”. The “Slope of LFC decline” value in assay [1] (responders with ALT>3×ULN) is recorded as −8.76; in assay [1] (responders without ALT>3×ULN) it was −4.24. For the same compound, the “Mean reduction in LFC” value in assay [1] (treatment responders with ALT>3×ULN) was −52.6%; in assay [1] (treatment responders without ALT>3×ULN), −25.5%.
